Reference: patent US20220211684A1, “ANTIFUNGAL AGENTS FOR CANDIDA AURIS DECOLONIZATION” (Scynexis, Inc., priority 2019, published 2022)
≈ marks a conversion by molar mass, not a printed value. Where two headings read alike, the source gives them in different places.

Columns and labels:
Candida auris [1] = assay: Guinea pig model of Candida auris skin infection, skin burden; type: in vivo, Guinea pigs
Experimental: (§1) Guinea pigs (n=5 per group) were randomized to receive 10 or 20 or 30 mg/kg of ibrexafungerp twice daily (BID) by gavage, or vehicle control. Animals received a single dose of prednisolone at 30 mg/kg, subcutaneously, one day prior and one and three days post infection to favor immuno-compromise of the animals and facilitate the development of Candida auris skin infection. A 100 μl cell suspension containing 10^8 blastospores of Candida auris was applied to an abraded area on the back of the animals. At Day 7, tissue biopsies were examined histologically, and tissue fungal burden was analyzed by colony counts from skin samples. PK bioanalysis of ibrexafungerp plasma concentrations was conducted following the final dose (Day 7).

clinical = assay: clinical; design: species or system humans; conditions: human, in vivo, po
Text: Print 2019 February PMID: 30478166). Such features are important for the treatment and prevention of fungal infections, as well as for achieving decolonization of susceptible fungal pathogens such as Candida auris.

Candida auris [2] = conditions: 100 isolates of Candida auris; cited from earlier work
Candida spp. = conditions: previous animal models of systemic Candida spp. infection; cited from earlier work
in vivo = assay: in vivo; design: species or system Guinea pigs; conditions: guinea pig, po, 10 mg/kg
Experimental: as §1

Candida auris [3] = assay: MIC50 against 102 Candida auris clinical and surveillance isolates from an outbreak in New York; type: cell-based; conditions: 97 isolates with variable or multidrug resistance; for MIC50: Candidozyma auris
Text: Low MIC50 values for ibrexafungerp were found for 102 Candida auris clinical and surveillance isolates from an outbreak in New York. The isolates included C. auris with a variable resistance to antifungal drugs (resistance to one drug in one or two classes of antifungal drugs), multidrug-resistant isolates (resistance to two or more drugs between two classes of antifungal drugs), and pan-resistant isolates (resistance to two or more azoles, all tested echinocandins, and amphotericin B). For the 97 isolates that had variable or multidrug resistance to the other tested antifungal drugs (including fluconazole, voriconazole, itraconazole, isavuconazole, posaconazole, anidulafungin, caspofungin, micafungin, amphotericin B, and flucytosine), the ibrexafungerp MIC50 range was 0.06-0.5 μg/ml; the median and mode for ibrexafungerp MIC50 were each 0.5 μg/ml.

- bioavailability (clinical): > 20%
- AUC(0-t) (in vivo): 2800 ng·h/mL
- MIC50 range (Candida auris [3]): 0.06 to 0.5 µg/mL
- MIC50 (Candida auris [3]; read-out: MIC50 median): 0.5 µg/mL (≈ 0.685 µM)
- MIC50 (Candida auris [3]; read-out: MIC50 mode): 0.5 µg/mL (≈ 0.685 µM)
Compound: CC(C)[C@@H](C)[C@@]1(C)CC[C@]2(C)[C@H]3CC[C@@H]4[C@@]5(COC[C@@]4(C)[C@@H](OC[C@](C)(N)C(C)(C)C)[C@H](n4ncnc4-c4ccncc4)C5)C3=CC[C@@]2(C)[C@@H]1C(=O)O [ibrexafungerp, (1S,4aR,6aS,7R,8R,10aR,10bR,12aR,14R,15R)-15-[[(2R)-2-amino-2,3,3-trimethylbutyl]oxy]-8-[(1R)-1,2-dimethylpropyl]-14[5-(4-pyridinyl)-1H-1,2,4-triazol-1-yl]-1,6,6a,7,8,9,10,10a,10b,11,12,12a-dodecahydro-1,6a,8,10a-tetramethyl-4H-1,4a-propano-2H-phenanthro[1,2-c]pyran-7-carboxylic acid]
- Tissue burdens of Candida auris (skin, colony counts) (Candida auris [1]; 10, 20 or 30 mg/kg BID by gavage, Day 7, versus vehicle control): lower in all treatment groups versus in the vehicle control group
- fungal elements in biopsy samples (histology) (Candida auris [1]; Day 7 tissue biopsies, versus untreated control): No fungal elements were observed
- clinical scores (crusting, inflammation) (Candida auris [1]; among the active treatment groups): no significant differences
- MIC50 (Candida auris [2]): 0.5 micrograms/ml
- MIC90 (Candida auris [2]): 1 micrograms/ml
- MIC overall mode (Candida auris [2]): 1 micrograms/ml
- exposures needed to achieve efficacy (Candida spp.): ~11.2 µg·h/mL
